The source made the active and inactive calls.
Columns and labels:
Caspase-6 = biological target: T1, Caspase-6 (Homo sapiens, UniProt P55212); assay: inhibition of CASP6 peptide cleavage – biochemical, VEID-R110 fluorescence, cherry-pick, dose response (AID 720632)
T1 sequence (P55212 whole entry): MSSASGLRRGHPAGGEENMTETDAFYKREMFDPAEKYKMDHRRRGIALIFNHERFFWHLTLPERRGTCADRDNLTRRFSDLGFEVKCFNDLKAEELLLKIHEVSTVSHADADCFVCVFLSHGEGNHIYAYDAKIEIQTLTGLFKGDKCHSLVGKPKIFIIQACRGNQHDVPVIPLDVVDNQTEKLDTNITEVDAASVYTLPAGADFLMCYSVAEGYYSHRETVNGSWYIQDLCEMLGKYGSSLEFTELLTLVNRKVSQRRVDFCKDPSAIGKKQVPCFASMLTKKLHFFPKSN

[1] = Counterscreen for activators of the function of SWI/SNF related, matrix associated, actin dependent regulator of chromatin, subfamily a, member 2 (SMARCA2, BRM): Luminescence-based cell-based high throughput dose response assay to identify non-selective compounds using the VP16 reporter assay.; type: functional
HEK293 [2] = assay: membrane integrity loss in HEK cells – cell-based, fluorescence, cytotoxicity control for IDE activator project, dose response (AID 588440); type: functional; details: Homo sapiens;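 also: cytotoxicity by LDH release measuring loss of membrane integrity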
Insulin-degrading enzyme = biological target: T2, Insulin-degrading enzyme (Homo sapiens, UniProt P14735); assay: recombinant IDE activation, cell-free – biochemical, fluorescence polarization, counter-screen for IDE activator project, dose response (AID 588681)
T2 sequence (P14735 whole entry): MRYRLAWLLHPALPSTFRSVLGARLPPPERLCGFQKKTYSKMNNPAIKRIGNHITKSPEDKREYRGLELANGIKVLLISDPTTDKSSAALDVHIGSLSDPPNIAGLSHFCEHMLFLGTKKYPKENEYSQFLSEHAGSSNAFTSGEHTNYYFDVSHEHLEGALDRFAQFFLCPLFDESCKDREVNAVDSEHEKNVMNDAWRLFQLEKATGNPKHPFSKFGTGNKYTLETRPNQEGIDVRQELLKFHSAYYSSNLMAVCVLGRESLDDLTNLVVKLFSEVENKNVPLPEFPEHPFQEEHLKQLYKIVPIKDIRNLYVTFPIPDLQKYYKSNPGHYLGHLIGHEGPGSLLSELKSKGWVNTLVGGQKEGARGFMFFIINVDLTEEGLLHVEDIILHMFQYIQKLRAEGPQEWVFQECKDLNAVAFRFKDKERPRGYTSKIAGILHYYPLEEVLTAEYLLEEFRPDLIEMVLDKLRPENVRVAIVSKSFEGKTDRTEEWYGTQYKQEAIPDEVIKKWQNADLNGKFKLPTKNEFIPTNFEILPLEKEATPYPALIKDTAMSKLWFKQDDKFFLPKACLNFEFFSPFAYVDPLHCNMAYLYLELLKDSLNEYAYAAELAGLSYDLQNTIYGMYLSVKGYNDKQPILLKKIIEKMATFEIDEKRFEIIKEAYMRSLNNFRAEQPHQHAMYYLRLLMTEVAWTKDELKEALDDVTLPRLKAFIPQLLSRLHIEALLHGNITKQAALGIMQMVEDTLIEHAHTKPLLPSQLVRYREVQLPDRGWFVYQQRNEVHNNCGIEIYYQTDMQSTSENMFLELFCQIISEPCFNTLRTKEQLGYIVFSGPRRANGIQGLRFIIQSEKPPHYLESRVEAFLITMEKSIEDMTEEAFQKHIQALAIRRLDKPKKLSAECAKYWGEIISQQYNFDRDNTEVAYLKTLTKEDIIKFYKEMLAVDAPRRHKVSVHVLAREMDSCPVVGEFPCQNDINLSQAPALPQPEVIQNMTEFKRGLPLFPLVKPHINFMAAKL

HEK293 [3] = assay: optical interference in Abeta FP readout, dose response, artefact control for IDE activator project, biochemical, fluorescence polarization (AID 588442); type: functional, cell-based; details: Homo sapiens
cells = type: functional, cell-based
HEK293 [4] = assay: SAR Analysis of small molecule inhibitors of T-cell specific antigen receptor-induced NF-kB activation in a HEK-293T cell line using a luminescence assay - Set 2. [Related pubchem assays (depositor defined):AID435003, AID435012, AID489026]; type: functional, cell-based; details: Homo sapiens
[5] = reduction of Shn3 3'UTR-driven luciferase in osteoblasts – cell-based, Clone20 osteoblasts, firefly luciferase, cherry-picked, dose response (AID 624132); type: functional;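 also: firefly luciferase luminescence from reporter carrying the Shn3 3'UTR in osteoblasts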
Caspase-3 = biological target: T3, Caspase-3 (Homo sapiens, UniProt P42574); assay: activation of caspase-3 zymogen – biochemical, absorbance, dose response (AID 489014)
T3 sequence (P42574 whole entry): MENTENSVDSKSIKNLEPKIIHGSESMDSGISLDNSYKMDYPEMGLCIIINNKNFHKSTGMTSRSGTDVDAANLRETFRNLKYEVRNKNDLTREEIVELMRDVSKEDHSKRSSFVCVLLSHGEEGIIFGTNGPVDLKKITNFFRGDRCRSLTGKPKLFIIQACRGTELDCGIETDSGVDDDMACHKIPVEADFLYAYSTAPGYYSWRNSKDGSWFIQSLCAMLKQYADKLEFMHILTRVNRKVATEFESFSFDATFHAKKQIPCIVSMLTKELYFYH

CCc1ccc2c(c1)C(NC(C)=O)C(=O)N2CCN1CCOCC1 (centres undefined)
AC50 (Caspase-6): 11.9 µM (active)

COc1ccc2noc3c2c1C(=O)c1ccccc1-3
EC50 [1]: > 91.2 µM (inactive) | IC50 (HEK293 [2]): > 89.2 µM (inactive) | EC50 (Insulin-degrading enzyme): > 54.7 µM (inactive) | EC50 (HEK293 [3]): > 54.7 µM (inactive)

CCCCC(=O)NC(c1ccc(Cl)cc1)c1ccc2cccnc2c1O (centres undefined)
EC50 (cells): 3.81 µM (active) | IC50 (HEK293 [4]): 4.57 µM (active) | AC50 [5]: 0.772 µM (active)

O=C(N/N=C/c1ccccc1O)/C(O)=C\C1=NC2(CCCC2)Cc2ccccc21
EC50 (Caspase-3): > 85.3 µM (inactive)

From ChEMBL document CHEMBL1201862, “PubChem BioAssay data set” (2004)
